According to patent publication US4937230A, “Method of healing wounds in horses” (ProCyte Corporation, priority 1987, dated 1990):

How the values were obtained:
[1] = tested on: infected fly bites (raised nodules in the saddle region); experiment: Saddle sores from fly bites, topical treatment of horse A; format: in vivo; settings: cream base 0.4% GHL-CU and 6% DMSO, topical twice/daily
Source text: History: Horse A suffered from fly bites which became infected and developed into irritating raised nodules located on the back in the saddle region over a period of 8 weeks.
Treatment: A cream base containing 0.4% GHL-CU and 6% DMSO was applied twice/daily to the nodules. Within 4-5 days, softening of the nodules occurred along with diminishment of irritation and inflammation. Total healing occurred within 10-14 days.

[2] = tested on: puncture wound; experiment: Puncture wound, topical treatment of horse D; format: in vivo; settings: upper leg, cream base 0.4% GHL-CU and 3% DMSO, twice/day
Protocol: History: A puncture wound of unknown origin occurred to the upper leg of horse D. No traditional therapy (antibiotics) was used prior to treatment.
Treatment: A cream base containing 0.4% GHL-CU and 3% DMSO was applied to the wound site shortly after the wound was discovered. […] The treatment was performed twice/day.

[3] = tested on: granulation tissue ("proud flesh"); experiment: Excessive accumulation of granulation tissue (proud flesh), topical treatment of horse K; format: in vivo; settings: cream base 0.4% GHL:CU and 3% DMSO for one month
Source text: History: An accumulation of unsightly granulation tissue or granuloma (known as "proud flesh") was present over a poorly healed wound (sight unspecified) in horse K. Typically, proud flesh often accompanies an insufficiently healing wound, appearing bubbly, swollen and nodular.

[4] = tested on: barbed-wire cuts/gashes; experiment: Barbed-wire cuts/gashes, topical treatment of horses E, F and G; format: in vivo, horse
Source text: (1) History: The skin of the hoof area of horse E was badly torn from barbed-wire.
Treatment: A cream base containing 0.4% GHL:CU and 6% DMSO was applied to the area 2 times/day.
(2) History: A 33-year-old horse (horse F) received a serious barbed wire wound to the lower leg directly into the cleft of the hoof. The wound area was ripped open, thereby dividing the hoof.
Treatment: A cream base with 0.4% GHL-CU and 6% DMSO was applied 1-2 times/day.
(3) History: A very deep barbed-wire induced gash on the upper rear leg of horse G was originally treated with antibiotics and closed with stitches.
Treatment: A cream containing 0.4% GHL-CU and 6% DMSO was applied for 2 weeks (1-2 times/day).

[5] = tested on: ulcerating pressure-induced injury; experiment: Ulcerating pressure-induced injury, topical treatment of horse J; format: in vivo
Source text: History: A 12-year-old thoroughbred (horse J) developed a large ulcer (2 inch diameter) on top of the withers (back beneath saddle horn area) A veterinarian treated the wound with antibiotics and an antibacterial spray. […] The wound continued to be large and inflamed after 3-4 months
Treatment: A cream containing 0.4% GHL:Cu with 6% DMSO was applied 1-2 times/day. The old scab fell off after a few days and was replaced by a new scab. After 2 weeks, the infection cleared up and ulceration began to be replaced by a skin covering. […] Approximately 1 month after beginning treatment, the ulcerative injury had resolved totally.

[6] = tested on: denuded area after injury (poor regrowth of hair); experiment: Denuded area after injury, topical treatment of horses B and C; format: in vivo, horse; settings: cream base 0.4% GHL-CU and 6% DMSO
Protocol: (1) History: Approximately 2 months following wounding (lower leg, cause unspecified) healing occurred in horse B with poor regrowth of hair. The affected area measured approximately 2 square inches
Treatment: A cream base containing 0.4% GHL-CU and 6% DMSO was applied to the denuded area 3-4 times/week. Substantial hair growth was noted after treatment for approximately 2-3 weeks.
(2) History: An ulcerative sore on the back of Horse C below the saddle horn area (withers) was treated by a veterinarian using antibiotics and an antibacterial spray. […] Hair was absent from the partially healed sore.
Treatment: A cream base consisting of 0.4% GHL-CU and 6% DMSO was applied 1-2 times/day. Within 3 weeks, the infected ulcerative area resolved and hair was noted to be covering the wound.

[7] = tested on: rope burn; experiment: Rope burn, topical treatment of horse H; format: in vivo; settings: rear ankle, cream base 0.4% GHL-CU and 6% DMSO, 2 times/day
Source text: The rope burn had removed all hair and skin. A veterinarian treated the burn with antibiotics and a nitrofurosone ointment. The scab was removed daily with washing. The injury responded, although quite slowly.
Treatment: A cream base with 0.4% GHL-CU and 6% DMSO was applied to the burn 2 times/day. The scab was left on the area during the treatment period.

[8] = tested on: full-thickness skin loss wound; experiment: Full-thickness skin loss, topical treatment of horse I; format: in vivo
Source text: History: Horse I suffered from a traumatic injury to the anterior mid-calf aspect of the rear leg, caused by striking a fence while jumping. A flap of skin initially remained over the approximately 2.5 inch diameter wound. The leg was bandaged for a brief time, and the dead skin flap removed within 10 days post-injury. The leg appeared swollen and inflamed.
Inflammation and swelling had also diminished.

[9] = horse F, cream base 0.4% GHL-CU and 6% DMSO, 1-2 times/day

Glycyl-L-Histidy-L-Lysine: Copper(II) [GHL:Cu]
time to softening of the nodules with diminishment of irritation and inflammation [1]: 4 to 5 days | time to total healing [1]: 10 to 14 days | healing of the wound [2]: healed within a few days | infection of the wound [2]: did not become infected | swelling and appearance of proud flesh [3]: notable reduction in swelling and improved appearance | time until the wound scabbed over ([4]; horse E, hoof area, cream base 0.4% GHL:CU and 6% DMSO, 2 times/day): 5 days | examination of the wound 3 weeks after treatment ([4]; horse E, hoof area, treatment halted after 5 days): no evidence of infection | new scab formation with reduction in wound size ([4]; horse F, lower leg/hoof cleft, cream base 0.4% GHL-CU and 6% DMSO, 1-2 times/day): within a few days | time to almost total healing [4, 9]: ≤ 4 weeks | wound course over 2 weeks of treatment [4, 9]: continuation of wound reduction and scab covering | scab formation over open, raw tissue ([4]; horse G, dehisced gash upper rear leg, 6 inches x 1 inch, cream 0.4% GHL-CU and 6% DMSO, 1-2 times/day for 2 weeks): A scab formed quickly | wound closure ([4]; horse G, cream 0.4% GHL-CU and 6% DMSO, 1-2 times/day for 2 weeks): Within weeks, the wound had begun to close and appeared healthy | granulation of the gash ([4]; horse G, noted when scab was removed during cleaning): granulated considerably | time until infection cleared up and ulceration began to be replaced by skin covering ([5]; 2 inch diameter ulcer on withers, cream 0.4% GHL:Cu with 6% DMSO, 1-2 times/day): 2 weeks | time until ulcerative injury had resolved totally ([5]; cream 0.4% GHL:Cu with 6% DMSO, 1-2 times/day): Approximately 1 month | hair growth over the area ([5]; shortly after 2 weeks): hair began growing over the area | treatment time after which substantial hair growth was noted ([6]; horse B, lower leg, about 2 square inches, 3-4 times/week): 2-3 weeks | time to resolution of infected ulcerative area with hair covering the wound ([6]; horse C, ulcerative sore on the back, 1-2 times/day): ≤ 3 weeks | hair regrowth [7]: hair grew back over the area | healing of the wound ([7]; scab left on): healed up within a week

Glycyl-L-Histidyl-L-Lysine octyl ester:Copper (II) [GHL-octyl ester Cu]
wound size under continued treatment ([8]; 1 time/day over the following week): continued to decrease in size | reduction of wound size ([8]; about 2.5 inch diameter wound, cream base 0.4% GHL-octyl ester Cu and 6% DMSO, 2 times/day for 2 weeks): ~50% | inflammation and swelling ([8]; after 2 weeks, 2 times/day): diminished | scab formation ([8]; after 2 weeks, 2 times/day): a scab had formed over the area

NC(=O)N/N=C/c1ccc([N+](=O)[O-])o1 [nitrofurosone, reference compound]
effect of prior treatment on the dehisced wound ([4]; horse G, 0.2% antibacterial agent): ineffective
